We go through two substances from US20260200979A1, “PEPTIDE FOR CARTILAGE REGENERATION, AND USES THEREOF” (CAREGEN CO., LTD., priority 2022, published 2026).

Ends that are not written are not given here.

The test system of this series is human-derived chondrocytes (C28/I2, human chondrocyte cell line). The series is described as follows: CCK-8 cytotoxicity assay. In kind it is cell-based. To be noted: C28/I2 cells, different concentrations, 3 days, 450 nm. How it is done:
The cytotoxicity of Peptide-1 or Peptide-2 upon addition to human-derived chondrocytes (C28/I2, human chondrocyte cell line) was analyzed using a CCK-8 assay.
Specifically, human-derived chondrocytes were seeded in a 96-well plate at a density of 3×10^3 cells/well and cultured in DMEM medium (cat. 11995-065, Gibco) for 24 hours. […] Meanwhile, as a negative control group, an experimental group to which the peptide was not added was used.

For the substance KFLIK [Peptide-2, KFLIK], the “cytotoxicity (CCK-8 activity)” value is on record as “did not exhibit toxicity”.

For PYYRI [Peptide-1, PYYRI], the “cytotoxicity (CCK-8 activity)” value is on record as “did not exhibit toxicity”.
